TGI data for 14 compounds are collected here from PubChem BioAssay (NCI).

Common to all, as to test: NCI anticancer screen, dose series, 48 h
The test system of test [1] is NCI/ADR-RES ovarian.
The test system of test [2] is HT29 colon.
In test [3] the test system is SNB-19 CNS.
Test [4] has as its system OVCAR-8 ovarian.
For test [5], the system named is COLO 205 colon.
The test system of test [6] is K-562 leukemia.
The test system of test [7] is NCI-H23 lung.
In test [8] the test system is MDA-MB-231 breast.
The subject of test [9] is A498 renal.
Test [10] has as its system SK-MEL-5 melanoma.

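Tested at 5 concentrations; 48 h exposure; 96-well plates; endpoints linearly interpolated, else capped at highest concentration. The concentration for full growth arrest is given as TGI.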

As for `CSC(SC)=C1CC(=O)Nc2ccccc2C1=O`, the TGI in test [1] is above 100 µM; in test [2], above 100 µM; in [3], above 100 µM; in test [4], above 100 µM; in test [5] it was above 100 µM; in test [6], 95.8 µM. Besides, the TGI in [7], in [8], in test [9] and in test [10] was above 100 µM in each case.

For `CN(C)c1nc(N(C)C)nc(N(C)C)n1`, the TGI in [1], in test [2], in [3], in test [4], in test [5] and in test [6] was above 150 µM each time. Further, the TGI is above 143 µM in test [7], above 150 µM in test [8], above 150 µM in test [9] and 136 µM in [10].

Turning to `Cc1ccc(Nc2nc(=S)[nH]c3[nH]ncc23)cc1`, the TGI in test [1], in test [2], in test [3], in test [4], in test [5] and in test [6] was above 100 µM in each case. Also, the TGI in test [7], in [8], in test [9] and in [10] was above 100 µM each time.

Take `CCOC(=O)CN1CCNCCN(CC(=O)OCC)CCNCC1`: the TGI in test [1], in [2], in test [3], in test [4], in test [5] and in [6] was above 100 µM each time. Besides, the TGI in test [8], in test [9] and in test [10] was above 100 µM throughout.

Turning to `O=C(c1ccccc1)c1ccc(C(c2c(O)c3ccccc3oc2=O)c2c(O)c3ccccc3oc2=O)cc1`, the TGI in [1] is 62.5 µM; in test [2], above 63.5 µM; in [3], 55.8 µM; in test [4], above 75.1 µM; in [5] it was above 73 µM; in test [6] it was above 72.1 µM. Besides, the TGI in [7] was 49 µM; in test [8], above 71.4 µM; in test [9], 62.6 µM; in test [10], above 68.5 µM.

Consider `C=C(O)c1ccccc1C#Cc1ccccc1C(=O)OC`, for which the TGI in test [1], in test [2], in test [3], in test [4], in [5] and in test [6] was above 10 µM each time. The TGI in test [7], in test [8], in [9] and in test [10] was above 10 µM in each case.

Consider `C=C[C@@H]1OC(=O)O[C@H]1CO`, for which the TGI in [1], in test [2], in test [3], in [4], in test [5] and in test [6] was above 100 µM in each case. Besides, the TGI in test [7], in test [8], in [9] and in test [10] was above 100 µM each time.

For `CC/C(=N\NC(=O)c1cccnc1)c1ccc2c(c1)OCCO2`, the TGI in [1], in test [2], in test [3], in [4], in test [5] and in test [6] was above 100 µM each time. The TGI in [7], in [8], in test [9] and in test [10] was above 100 µM in each case.

For the compound `CCC1(C)C=Cc2c(cc(OC)c3c(=O)c4ccccc4n(C)c23)O1` (centres undefined), the TGI in test [1], in test [2], in [3], in test [4], in [5] and in test [6] was above 10 µM throughout. Further, the TGI in test [7], in [8], in test [9] and in test [10] was above 10 µM in each case.

As for `COc1ccc(/C=C2\C=Cc3ccccc32)cc1OC`, the TGI in [1], in [2], in [3], in [4], in test [5] and in test [6] was above 100 µM throughout. Also, the TGI in [7], in test [8], in test [9] and in test [10] was above 100 µM in each case.

As for `COc1c2c(c(OC)c3c1c(=O)c1ccccc1n3C)OCO2`, the TGI in test [1] was above 100 µM; in test [2], above 100 µM; in test [3] it was above 100 µM; in test [4], above 100 µM; in test [5] it was 53.9 µM; in [6], above 100 µM. For the same compound, the TGI is above 100 µM in test [7], above 31.6 µM in test [8], above 100 µM in [9] and 15.7 µM in test [10].

`CCOC(=O)C1C(=O)CC(O)(OCC)C(C(=O)OCC)C1c1ccc(OC)cc1` (centres undefined): the TGI in [1], in test [2], in test [3], in [4], in test [5] and in test [6] was above 100 µM throughout. The TGI in test [7], in test [8], in test [9] and in test [10] was above 100 µM in each case.

Regarding `CCN1CC2=C(N=c3s/c(=C\c4ccc(Cl)cc4)c(=O)n3C2c2ccc(Cl)cc2)/C(=C/c2ccc(Cl)cc2)C1` (centres undefined), the TGI in test [1], in [2], in [3], in [4], in test [5] and in [6] was above 100 µM each time. Besides, the TGI in [7] was above 100 µM; in test [8], above 100 µM; in test [9], 64.6 µM; in [10], above 100 µM.

As to `CCOC(=O)c1nc2cc(N3CCOCC3)c(F)cc2[nH]c1=O`, the TGI in [1], in [2], in test [3], in [4], in test [5] and in [6] was above 100 µM each time. Besides, the TGI in test [7], in test [8], in test [9] and in test [10] was above 100 µM each time.
